In the supplement of paper PMC10627819:

Key:
S. aureus DSM 20231 [1] = test: Bliss interaction score (quartile over a dose matrix) (fitness difference); higher = more antagonism (negative = synergy)
In short: (§1)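 Combination data were used to infer fitness under each single drug. Fitness is the OD595 at entry into stationary phase divided by the robust mean of the plate's no-drug wells, with a cap of 1. The Bliss score is the observed minus the expected product fitness, summarised by quartiles over technical, biological and donor/recipient replicates.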

B. subtilis 168 [2] = test: as above
In short: as §1

S. pneumoniae D39V [3] = test: as above
In short: as §1

S. aureus Newman = test: as above
In short: as §1

S. aureus DSM 20231 [4] = test: fitness (endpoint OD595 vs no drug) (fraction); higher = more growth
In short: (§2)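 Volumes were 30 µl per well, or 55 µl for S. pneumoniae, in 384-well plates inoculated at OD595 0.01. Media were TSB, LB Lennox or CY at 37 °C, and OD595 was read every 30 min for 14 h with first-reading background subtraction. Fitness is the ratio of optical density at stationary-phase entry to the robust mean of no-drug controls. That ratio is capped at 1.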

B. subtilis 168 [5] = test: as above
In short: as §2

S. pneumoniae D39V [6] = test: as above
In short: as §2
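Throughout, for Bliss interaction score (quartile over a dose matrix): first quartile when negative (synergy) and third quartile when positive (antagonism).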

CCC[C@@H]1C[C@@H](C(=O)N[C@@H]([C@H]2O[C@H](SC)[C@H](O)[C@@H](O)[C@H]2O)[C@@H](C)O)N(C)C1 [Lincomycin] + C[n+]1ccc(-c2cc[n+](C)cc2)cc1 [Paraquat]
Conditions	Bliss interaction score
B. subtilis 168 [2]	0.0402
S. aureus DSM 20231 [1]	-0.0564
S. aureus Newman	-0.191
S. pneumoniae D39V [3]	0.0842

Conditions	fitness
B. subtilis 168 [5], first compound 0.1 µg/mL, partner 1.25 µg/mL	0.92
B. subtilis 168 [5], first compound 0.1 µg/mL, partner 2.5 µg/mL	0.92
B. subtilis 168 [5], first compound 0.1 µg/mL, partner 5 µg/mL	0.968
B. subtilis 168 [5], first compound 0.2 µg/mL, partner 1.25 µg/mL	0.923
B. subtilis 168 [5], first compound 0.2 µg/mL, partner 2.5 µg/mL	0.855
B. subtilis 168 [5], first compound 0.2 µg/mL, partner 5 µg/mL	0.833
B. subtilis 168 [5], first compound 0.4 µg/mL, partner 1.25 µg/mL	0.878
B. subtilis 168 [5], first compound 0.4 µg/mL, partner 2.5 µg/mL	0.845
B. subtilis 168 [5], first compound 0.4 µg/mL, partner 5 µg/mL	0.814
S. aureus DSM 20231 [4], first compound 0.1 µg/mL, partner 1.25 µg/mL	0.801
S. aureus DSM 20231 [4], first compound 0.1 µg/mL, partner 2.5 µg/mL	0.802
S. aureus DSM 20231 [4], first compound 0.1 µg/mL, partner 5 µg/mL	0.838
S. aureus DSM 20231 [4], first compound 0.2 µg/mL, partner 1.25 µg/mL	0.739
S. aureus DSM 20231 [4], first compound 0.2 µg/mL, partner 2.5 µg/mL	0.719
S. aureus DSM 20231 [4], first compound 0.2 µg/mL, partner 5 µg/mL	0.692
S. aureus DSM 20231 [4], first compound 0.4 µg/mL, partner 5 µg/mL	0.28
S. pneumoniae D39V [6], first compound 0.215 µg/mL, partner 1.5 µg/mL	0.885
S. pneumoniae D39V [6], first compound 0.215 µg/mL, partner 3 µg/mL	0.863
S. pneumoniae D39V [6], first compound 0.215 µg/mL, partner 6 µg/mL	0.814
S. pneumoniae D39V [6], first compound 0.43 µg/mL, partner 1.5 µg/mL	0.774
S. pneumoniae D39V [6], first compound 0.43 µg/mL, partner 3 µg/mL	0.733
S. pneumoniae D39V [6], first compound 0.43 µg/mL, partner 6 µg/mL	0.711
S. pneumoniae D39V [6], first compound 0.86 µg/mL, partner 1.5 µg/mL	0.56
S. pneumoniae D39V [6], first compound 0.86 µg/mL, partner 3 µg/mL	0.407
S. pneumoniae D39V [6], first compound 0.86 µg/mL, partner 6 µg/mL	0.453

fitness, S. pneumoniae D39V [6], one replicate
Conditions	first compound 0.2 µg/mL	first compound 0.4 µg/mL	first compound 0.8 µg/mL
partner 1.5 µg/mL	0.83	0.758	0.675
partner 3 µg/mL	0.866	0.751	0.729
partner 6 µg/mL	0.889	0.802	0.776

CCC[C@@H]1C[C@@H](C(=O)N[C@@H]([C@H]2O[C@H](SC)[C@H](O)[C@@H](O)[C@H]2O)[C@@H](C)O)N(C)C1 [Lincomycin] + CN[C@@H]1[C@H](O)[C@H](NC)[C@H]2O[C@@]3(O)C(=O)C[C@@H](C)O[C@H]3O[C@@H]2[C@H]1O [Spectinomycin]
Conditions	Bliss interaction score
B. subtilis 168 [2]	-0.0786
S. aureus DSM 20231 [1]	-0.175
S. aureus Newman	-0.195
S. pneumoniae D39V [3]	-0.0914

fitness
Conditions	partner 2 µg/mL	partner 4 µg/mL	partner 8 µg/mL	partner 16 µg/mL
B. subtilis 168 [5], first compound 0.1 µg/mL	0.923	0.923	0.849	–
B. subtilis 168 [5], first compound 0.2 µg/mL	0.937	0.929	0.847	–
B. subtilis 168 [5], first compound 0.4 µg/mL	0.907	0.859	0.861	–
S. aureus DSM 20231 [4], first compound 0.1 µg/mL	–	0.819	0.732	0.566
S. aureus DSM 20231 [4], first compound 0.2 µg/mL	–	0.581	0.54	0.351
S. aureus DSM 20231 [4], first compound 0.4 µg/mL	–	–	–	0.122
S. pneumoniae D39V [6], first compound 0.215 µg/mL	–	0.777	0.787	0.721
S. pneumoniae D39V [6], first compound 0.43 µg/mL	–	0.688	0.713	0.616
S. pneumoniae D39V [6], first compound 0.86 µg/mL	–	0.268	0.286	0.158

fitness, one replicate
Conditions	first compound 0.1 µg/mL	first compound 0.2 µg/mL	first compound 0.4 µg/mL	first compound 0.8 µg/mL
S. aureus DSM 20231 [4], partner 32 µg/mL	0.377	0.176	0.0758	–
S. aureus DSM 20231 [4], partner 64 µg/mL	0.0561	0.042	0.0347	–
S. pneumoniae D39V [6], partner 4 µg/mL	–	0.777	0.659	0.412
S. pneumoniae D39V [6], partner 8 µg/mL	–	0.752	0.63	0.35
